What all share (assay type): cell-based
Assay [1] relates to S. aureus clinical isolate 11719. Particulars: clinical isolate 11719, 24 h.
Assay [2] deals with HeLa cells. The assay is described as follows: Fluorescence confocal microscopy, colocalization analysis (ImageJ JaCoP). As to conditions: 2 h at IC50, colocalization with SMA antibody. As to the method: The possible cellular distribution of the peptides was determined by colocalization analysis of the Rhodamine B fluorescent signal, with fluorophores used to stain the nucleus (Hoechst 33342) and cytoplasm components (SMA antibody). ImageJ 1.54f analysis software and the JaCoP plugin were used to analyze signal colocalization.
HeLa cells (>70% confluence) were seeded on sterile round coverslips in 24-well plates with DMEM + 5% FBS and incubated at 37 °C, 5% CO2 for 24 h. After adhesion, the medium was replaced, and cells were treated with fluorescent peptides at their IC50 for 2 h. Then, cells were washed with PBS under constant stirring (3 × 10 min). Cellular fixation was performed using a solution containing 2% paraformaldehyde and 1% sucrose 100 mM in PBS for 30 min, followed by PBS washes (2 × 10 min). Permeabilization was carried out using a solution of 0.1% Triton X-100 and 20 mM glycine in PBS for 10 min, followed by two additional PBS washes. Blocking was performed with 1% BSA and 20 mM glycine in PBS for 10 min. […] For the fluorescence lecture, 5 µL of Fluoromount mounting medium was applied to the slide, and the coverslip containing the cells was inverted onto the medium. Slides were allowed to be dry-protected from light, and cells were visualized using a Leica DMi8 fluorescence confocal microscope. […]

In assay [3] the test system is E. faecalis clinical isolate 82. As to conditions: clinical isolate 82, 24 h.
For assay [4], the system named is E. coli clinical isolate 301755 (MDR). As to conditions: clinical isolate 301755 (MDR, 24 h).
In assay [5] the test system is E. coli clinical isolate 129797 (resistant). Particulars: clinical isolate 129797 (resistant, 24 h).
The test system of assay [6] is S. aureus clinical isolate 124653. As to conditions: clinical isolate 124653, 24 h.
Assay [7] has as its system E. coli clinical isolate 1004 (susceptible). Particulars: clinical isolate 1004 (susceptible, 24 h).
Assay [8] relates to E. faecalis clinical isolate 179. As to conditions: clinical isolate 179, 24 h.
Assay [9] relates to E. faecalis clinical isolate 213. Particulars: clinical isolate 213, 24 h.
In assay [10] the test system is S. aureus clinical isolate 109095. As to conditions: clinical isolate 109095, 24 h.
Assay [11] relates to HeLa cells. Briefly: Micrographs of cell morphology after peptide treatment. As to conditions: 100 µg/mL, 2 h, 37 °C. The text has this:
Despite these pronounced morphological alterations, there was no evidence of cell rupture, membrane disintegration, or the presence of cell fragments, indicating the absence of necrotic processes. […] Green arrows indicate normal morphologies, such as cytoplasmic elongations and polygonal shapes. Red arrows indicate morphological changes induced by the peptides, including cell rounding, shrinkage, and loss of cytoplasmic projections. Scale bar: µm. The control corresponds to untreated cells.

Each structure is given as a SMILES string. Residues, ends and D or L forms follow the SMILES beside them. *: point of attachment. RhodamineB = CCN(CC)c1ccc2c(-c3ccccc3C(=O)*)c3ccc(=[N+](CC)CC)cc-3oc2c1

Results on one compound are retold here after article PMC12383145, “Fluorescent Peptides Internalize HeLa Cells and Kill Multidrug-Resistant Clinical Bacterial Isolates” (Antibiotics, 2025).

As for `CCN(CC)c1ccc2c(-c3ccccc3C(=O)N[C@@H](CCCNC(=N)N)C(=O)N[C@@H](Cc3c[nH]c4ccccc34)C(=O)N[C@@H](CCC(N)=O)C(=O)N[C@@H](Cc3c[nH]c4ccccc34)C(=O)N[C@@H](CCCNC(=N)N)C(=O)N[C@@H](Cc3c[nH]c4ccccc34)C(=O)N[C@@H](CCC(N)=O)C(=O)N[C@@H](Cc3c[nH]c4ccccc34)C(=O)N[C@@H](CCCNC(=N)N)C(N)=O)c3ccc(=[N+](CC)CC)cc-3oc2c1` [RhB-1, RhB-RWQWRWQWR] (RhodamineB-RWQWRWQWR-NH2), the “Minimal bactericidal concentration (MBC)” value in assay [1] is 105 µM; in assay [3], 105 µM; in assay [4], above 105 µM; in assay [5], above 105 µM; in assay [6] it was 105 µM; in assay [7] it was above 105 µM. Further, the Minimal bactericidal concentration (MBC) is above 105 µM in assay [8], above 105 µM in assay [9] and 105 µM in [10]. In addition, the “Minimal inhibitory concentration (MIC)” value in assay [1] was 52 µM; in assay [3], 26 µM; in assay [4], above 105 µM; in [5], above 105 µM; in assay [6] it was 105 µM; in [7] it was above 105 µM. The results for the Minimal inhibitory concentration (MIC) in assay [8], in [9] and in [10] were above 105 µM, above 105 µM and 26 µM, respectively. Moreover, the cellular localization result in the assay on HeLa cells [2] was “internalized and distributed in the cytoplasm”. In addition, the morphological changes entry with HeLa cells [11] was “appeared smaller, rounded, and contained vacuoles”.
